Among the data in US9051307B2, “Bipyridyl derivatives” (Merck Patent GmbH, priority 2010, dated 2015) are IC50 values, retold here.

In the assay the target is T1, GST-ALK5 (Homo sapiens, UniProt P36897).
T1 sequence (P36897 34-503): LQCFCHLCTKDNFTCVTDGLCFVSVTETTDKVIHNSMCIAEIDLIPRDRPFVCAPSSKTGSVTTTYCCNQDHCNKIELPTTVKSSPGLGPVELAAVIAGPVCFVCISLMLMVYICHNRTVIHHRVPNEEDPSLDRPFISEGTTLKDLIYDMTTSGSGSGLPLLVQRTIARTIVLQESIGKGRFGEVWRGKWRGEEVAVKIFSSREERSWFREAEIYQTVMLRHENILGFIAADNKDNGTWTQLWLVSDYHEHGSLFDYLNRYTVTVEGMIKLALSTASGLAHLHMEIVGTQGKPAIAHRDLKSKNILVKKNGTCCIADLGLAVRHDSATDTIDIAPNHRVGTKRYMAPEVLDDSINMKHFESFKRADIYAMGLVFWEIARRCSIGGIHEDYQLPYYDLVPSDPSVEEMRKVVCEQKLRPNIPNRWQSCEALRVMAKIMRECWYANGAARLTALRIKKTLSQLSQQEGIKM
Description: In-vitro (enzyme) kinase assay, 384-well flashplate, GST-ALK5 with GST-SMAD2 and 33P-ATP (Example 16). The assay is classed as biochemical. The note with it: 31.2 nM GST-ALK5, 439 nM GST-SMAD2, 3 mM ATP, 30° C., 45 min; IC50 classes; read-out: TβR activity (Example 16). As for the experimental part: In-vitro (Enzyme) Assay for Determination of the Efficacy of Inhibitors of the Inhibition of TGF-Beta-mediated Effects
The kinase assay was carried out as 384-well flashplate assay. 31.2 nM of GST-ALK5, 439 nM of GST-SMAD2 and 3 mM of ATP (with 0.3 μCi of ^33P-ATP/well) were incubated in a total volume of 35 μl (20 mM of HEPES, 10 mM of MgCl2, 5 mM of MnCl2, 1 mM of DTT, 0.1% of BSA, pH 7.4) without or with test substance (5-10 concentrations) at 30° C. for 45 min. The reaction was stopped using 25 μl of 200 mM EDTA solution, filtered with suction at room temperature after 30 min, and the wells were washed with 3 times 100 μl of 0.9% NaCl solution. Radioactivity was measured in the TopCount. The IC50 values were calculated using RS1.
For the molecule `Fc1ccc(Cl)cc1-c1cc(-c2cncc(-c3cnn(C4CCNCC4)c3)c2)ccn1` [Compound 18, 2′-(5-Chloro-2-fluoro-phenyl)-5-(1-piperidin-4-yl-1H-pyrazol-4-yl)-[3,4′]bipyridinyl], the IC50 was below 1000 nM. In the case of `OCCn1cc(-c2cncc(-c3ccnc(-c4ccccc4F)c3)n2)cn1` [Compound 20, 2-(4-{6-[2-(2-Fluoro-phenyl)-pyridin-4-yl]-pyrazin-2-yl}-pyrazol-1-yl)-ethanol], the IC50 is below 1000 nM. Turning to `Fc1ccccc1-c1cc(-c2cncc(-c3cnn(CCCN4CCOCC4)c3)c2)ccn1` [Compound 21, 2′-(2-Fluoro-phenyl)-5-[1-(3-morpholin-4-yl-propyl)-1H-pyrazol-4-yl]-[3,4′]bipyridinyl], the IC50 is below 1000 nM.

`OCCCn1cc(-c2cncc(-c3ccnc(-c4ccccc4F)c3)c2)cn1` [Compound 22, 3-{4-[2′-(2-Fluoro-phenyl)-[3,4′]bipyridinyl-5-yl]-pyrazol-1-yl}-propan-1-ol]: the IC50 was below 1000 nM. For `CN1CCN(CCCn2cc(-c3cncc(-c4ccnc(-c5ccccc5F)c4)c3)cn2)CC1` [Compound 23, 2′-(2-Fluoro-phenyl)-5-{1-[3-(4-methyl-piperazin-1-yl)-propyl]-1H-pyrazol-4-yl}-[3,4′]bipyridinyl], the IC50 was below 1000 nM.

Take `CN1CCC(n2cc(-c3cncc(-c4ccnc(-c5ccccc5F)c4)c3)cn2)CC1` [Compound 24, 2′-(2-Fluoro-phenyl)-5-[1-(1-methyl-piperidin-4-yl)-1H-pyrazol-4-yl]-[3,4′]bipyridinyl]: the IC50 is below 1000 nM.

As for `CN1CCN(c2ccc(-c3cncc(-c4ccnc(-c5ccccc5F)c4)c3)cn2)CC1` [Compound 25, 2″-(2-Fluoro-phenyl)-6-(4-methyl-piperazin-1-yl)-[3,3′;5′,4″]terpyridine], the IC50 was below 1000 nM. Take `Fc1ccccc1-c1cc(-c2cncc(-c3ccc(N4CCNCC4)nc3)c2)ccn1` [Compound 26, 2″-(2-Fluoro-phenyl)-6-piperazin-1-yl-[3,3′;5′,4″]terpyridine]: the IC50 is below 1000 nM. `Fc1ccccc1-c1cc(-c2cncc(-c3cnn(C4CCNCC4)c3)c2)ccn1` [Compound 27, 2′-(2-Fluoro-phenyl)-5-(1-piperidin-4-yl-1H-pyrazol-4-yl)-[3,4′]bipyridinyl]: the IC50 was below 1000 nM. For the molecule `CN(C)CCCn1cc(-c2cncc(-c3ccnc(-c4cc(F)ccc4F)c3)c2)cn1` [Compound 28, (3-{4-[2′-(2,5-Difluoro-phenyl)-[3,4′]bipyridinyl-5-yl]-pyrazol-1-yl}-propyl)-dimethyl-amine], the IC50 is below 1000 nM. Turning to `CN(C)CCCn1cc(-c2cncc(-c3ccnc(-c4ccccc4F)c3)c2)cn1` [Compound 29, (3-{4-[2′-(2-Fluoro-phenyl)-[3,4′]bipyridinyl-5-yl]-pyrazol-1-yl}-propyl)-dimethyl-amine], the IC50 was below 1000 nM.

As for `CN(C)CCCn1cc(-c2cncc(-c3ccnc(-c4cc(Cl)ccc4F)c3)c2)cn1` [Compound 30, (3-{4-[2′-(5-Chloro-2-fluoro-phenyl)-[3,4′]bipyridinyl-5-yl]-pyrazol-1-yl}-propyl)-dimethyl-amine], the IC50 is below 1000 nM. With `OCCn1cc(-c2cncc(-c3ccnc(-c4cc(C(F)(F)F)ccc4F)c3)c2)cn1` [Compound 31, 2-{4-[2′-(2-Fluoro-5-trifluoromethyl-phenyl)-[3,4′]bipyridinyl-5-yl]-pyrazol-1-yl}-ethanol], the IC50 is below 1000 nM. Turning to `OCCn1cc(-c2cncc(-c3ccnc(-c4cc(F)ccc4F)c3)c2)cn1` [Compound 32, 2-{4-[2′-(2,5-Difluoro-phenyl)-[3,4′]bipyridinyl-5-yl]-pyrazol-1-yl}-ethanol], the IC50 is below 1000 nM. Take `OCCn1cc(-c2cncc(-c3ccnc(-c4ccccc4F)c3)c2)cn1` [Compound 33, 2-{4-[2′-(2-Fluoro-phenyl)-[3,4′]bipyridinyl-5-yl]-pyrazol-1-yl}-ethanol]: the IC50 is below 1000 nM. Turning to `OCCn1cc(-c2cncc(-c3ccnc(-c4cc(Cl)ccc4F)c3)c2)cn1` [Compound 34, 2-{4-[2′-(5-Chloro-2-fluoro-phenyl)-[3,4′]bipyridinyl-5-yl]-pyrazol-1-yl}-ethanol], the IC50 was below 1000 nM. As to `CN1CCC(n2cc(-c3cncc(-c4ccnc(-c5cc(F)ccc5F)c4)c3)cn2)CC1` [Compound 35, 2′-(2,5-Difluoro-phenyl)-5-[1-(1-methyl-piperidin-4-yl)-1H-pyrazol-4-yl]-[3,4′]bipyridinyl], the IC50 is below 1000 nM.

As to `CN1CCC(n2cc(-c3cncc(-c4ccnc(-c5cc(C(F)(F)F)ccc5F)c4)c3)cn2)CC1` [Compound 36, 2′-(2-Fluoro-5-trifluoromethyl-phenyl)-5-[1-(1-methyl-piperidin-4-yl)-1H-pyrazol-4-yl]-[3,4′]bipyridinyl], the IC50 was below 1000 nM. With `CN1CCC(n2cc(-c3cncc(-c4ccnc(-c5cc(Cl)ccc5F)c4)c3)cn2)CC1` [Compound 37, 2′-(5-Chloro-2-fluoro-phenyl)-5-[1-(1-methyl-piperidin-4-yl)-1H-pyrazol-4-yl]-[3,4′]bipyridinyl], the IC50 was below 1000 nM. On to `Fc1ccccc1-c1cc(-c2cncc(-c3cnc4ccccc4c3)c2)ccn1` [Compound 39, 2′-(2-Fluoro-phenyl)-5-quinolin-3-yl-[3,4′]bipyridinyl], for which the IC50 is 1000 to 10000 nM. For `Fc1ccccc1-c1cc(-c2cncc(-n3cccn3)c2)ccn1` [Compound 41, 2′-(2-Fluoro-phenyl)-5-pyrazol-1-yl-[3,4′]bipyridinyl], the IC50 is below 1000 nM. To `Fc1ccccc1-c1cc(-c2cncc(-c3cnc4[nH]c(C(F)(F)F)cc4c3)c2)ccn1` [Compound 42, 2′-(2-Fluoro-phenyl)-5-(2-trifluoromethyl-1H-pyrrolo[2,3-b]pyridin-5-yl)-[3,4′]bipyridinyl] belongs 1000 to 10000 nM; to `CCOc1cc(Nc2cncc(-c3ccnc(-c4ccccc4F)c3)c2)ccn1` [Compound 43, (2-Ethoxy-pyridin-4-yl)-[2′-(2-fluoro-phenyl)-[3,4′]bipyridinyl-5-yl]-amine], 1000 to 10000 nM. Consider `COc1ccc(Nc2cncc(-c3ccnc(-c4ccccc4F)c3)c2)cn1` [Compound 44, [2′-(2-Fluoro-phenyl)-[3,4′]bipyridinyl-5-yl]-(6-methoxy-pyridin-3-yl)-amine], for which the IC50 lay within 1000 to 10000 nM.

`CCOCc1cnc(C)nc1Nc1cncc(-c2ccnc(-c3ccccc3F)c2)c1` [Compound 45, (5-Ethoxymethyl-2-methyl-pyrimidin-4-yl)-[2′-(2-fluoro-phenyl)-[3,4′]bipyridinyl-5-yl]-amine]: the IC50 lay in the range of 1000 to 10000 nM.
